12 molecules from patent US20230103791A1 (GLAXOSMITHKLINE INTELLECTUAL PROPERTY DEVELOPMENT LIMITED, priority 2019, published 2023) can be followed below.

The structures appear in SMILES notation.

For the first experiment, the target named is T1, human Nav1.8 (Homo sapiens, UniProt Q9Y5Y9).
T1 construct: expressed in transfected cells; host or cells: HEK293 (HEK293-Nav1.8)
T1 sequence (Q9Y5Y9 whole entry): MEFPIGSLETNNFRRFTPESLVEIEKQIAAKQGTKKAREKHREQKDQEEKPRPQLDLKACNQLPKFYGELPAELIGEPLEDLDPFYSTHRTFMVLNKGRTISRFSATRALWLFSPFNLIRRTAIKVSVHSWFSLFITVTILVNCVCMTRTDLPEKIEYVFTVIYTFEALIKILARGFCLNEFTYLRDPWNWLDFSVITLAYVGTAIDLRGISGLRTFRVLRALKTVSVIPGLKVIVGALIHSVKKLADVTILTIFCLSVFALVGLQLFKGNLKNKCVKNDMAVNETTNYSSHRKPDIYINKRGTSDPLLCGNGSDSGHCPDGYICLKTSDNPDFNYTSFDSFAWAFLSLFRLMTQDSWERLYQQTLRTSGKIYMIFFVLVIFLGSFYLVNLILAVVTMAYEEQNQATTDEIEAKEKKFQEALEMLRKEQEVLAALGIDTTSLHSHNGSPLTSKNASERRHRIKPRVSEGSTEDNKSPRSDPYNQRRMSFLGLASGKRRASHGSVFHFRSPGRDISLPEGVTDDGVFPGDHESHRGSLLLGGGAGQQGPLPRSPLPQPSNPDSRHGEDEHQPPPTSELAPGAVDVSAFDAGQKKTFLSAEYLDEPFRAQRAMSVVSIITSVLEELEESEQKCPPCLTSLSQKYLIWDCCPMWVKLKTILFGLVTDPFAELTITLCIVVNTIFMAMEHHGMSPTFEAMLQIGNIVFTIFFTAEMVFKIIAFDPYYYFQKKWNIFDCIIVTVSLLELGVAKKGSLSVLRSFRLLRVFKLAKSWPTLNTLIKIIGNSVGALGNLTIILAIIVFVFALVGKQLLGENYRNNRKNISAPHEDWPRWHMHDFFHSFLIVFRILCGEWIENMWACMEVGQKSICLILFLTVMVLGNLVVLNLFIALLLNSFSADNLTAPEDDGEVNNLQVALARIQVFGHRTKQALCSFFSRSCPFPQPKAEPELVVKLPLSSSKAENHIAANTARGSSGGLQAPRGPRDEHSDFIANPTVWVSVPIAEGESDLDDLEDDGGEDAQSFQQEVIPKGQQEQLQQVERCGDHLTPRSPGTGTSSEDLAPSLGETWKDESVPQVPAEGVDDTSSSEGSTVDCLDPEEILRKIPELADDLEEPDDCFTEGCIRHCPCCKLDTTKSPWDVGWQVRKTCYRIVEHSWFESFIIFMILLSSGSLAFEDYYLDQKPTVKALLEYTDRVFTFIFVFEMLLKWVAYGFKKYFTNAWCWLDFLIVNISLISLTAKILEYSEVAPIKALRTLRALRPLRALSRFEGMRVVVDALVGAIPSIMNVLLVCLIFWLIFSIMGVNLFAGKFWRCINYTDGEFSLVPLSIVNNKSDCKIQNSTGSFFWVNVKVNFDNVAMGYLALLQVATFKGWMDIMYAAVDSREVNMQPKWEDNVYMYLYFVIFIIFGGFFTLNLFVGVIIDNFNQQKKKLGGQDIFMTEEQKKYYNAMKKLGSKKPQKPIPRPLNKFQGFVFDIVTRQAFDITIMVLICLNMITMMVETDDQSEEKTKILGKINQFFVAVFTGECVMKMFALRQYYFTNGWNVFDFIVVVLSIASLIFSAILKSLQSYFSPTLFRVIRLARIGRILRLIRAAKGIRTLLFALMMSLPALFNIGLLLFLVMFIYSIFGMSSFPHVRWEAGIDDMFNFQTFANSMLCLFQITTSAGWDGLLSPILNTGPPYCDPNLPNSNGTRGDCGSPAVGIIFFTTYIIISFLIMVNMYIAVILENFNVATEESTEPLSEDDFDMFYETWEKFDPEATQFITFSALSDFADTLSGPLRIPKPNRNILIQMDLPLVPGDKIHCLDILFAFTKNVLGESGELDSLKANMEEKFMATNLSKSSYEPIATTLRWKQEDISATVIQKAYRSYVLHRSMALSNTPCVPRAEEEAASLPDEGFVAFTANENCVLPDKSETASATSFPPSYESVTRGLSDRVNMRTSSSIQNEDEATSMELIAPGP
T1 sequence (Q07699 19-218 partner): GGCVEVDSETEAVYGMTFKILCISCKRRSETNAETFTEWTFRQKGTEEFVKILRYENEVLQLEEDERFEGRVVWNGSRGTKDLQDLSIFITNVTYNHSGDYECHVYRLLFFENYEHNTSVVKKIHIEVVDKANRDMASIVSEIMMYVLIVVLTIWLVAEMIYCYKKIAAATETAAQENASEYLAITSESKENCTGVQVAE
The experiment in a line: Nav1.8 sodium channels assay, QPatch 48 HTX electrophysiology in HEK293-Nav1.8 cells. It counts as cell-based. The settings on record: Table 1; HEK293-Nav1.8, QPatch 48 HTX, half inactivation state voltage protocol (V1/2); single run or average of two or more runs; read-out: Nav1.8 pIC50 (converted). A digest of the protocol:
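IC50 came from 6-8 point curves of P2 current amplitude, normalized to baseline and a positive reference, and corrected for run-down using vehicle-only wells. Automated patch clamp used HEK293-Nav1.8 (with Navβ1 and TREK1) at pH 7.4 outside and CsF-based solution inside. An 8 s inactivating step at −46 mV preceded the 0 mV test pulse, repeated at 0.07 Hz.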
In the case of `Cc1cc(F)ccc1N1CN(c2ccc(=O)[nH]c2C)C(=O)c2ccc(C(F)(F)F)cc21` [drawing 268, 1-(4-fluoro-2-methylphenyl)-3-(2-methyl-6-oxo-1,6-dihydropyridin-3-yl)-7-(trifluoromethyl)-2,3-dihydroquinazolin-4(1H)-one], the IC50 was 20 nM.

Take `Cc1cc(F)ccc1N1CN(c2ccc(=O)[nH]c2)C(=O)c2ccc(C#N)cc21` [drawing 279, 1-(4-fluoro-2-methylphenyl)-4-oxo-3-(6-oxo-1,6-dihydropyridin-3-yl)-1,2,3,4-tetrahydroquinazoline-7-carbonitrile]: the IC50 is 1580 nM.

Staying with this experiment, now noted: at least one set of experimental runs; read-out: average pIC50 value against Nav1.8 (converted).
As for `COc1ccc2c(c1)N(c1ccc(F)cc1C)CN(c1ccc(=O)[nH]c1C)C2=O` [Example 99, 1-(4-fluoro-2-methylphenyl)-7-methoxy-3-(2-methyl-6-oxo-1,6-dihydropyridin-3-yl)-2,3-dihydroquinazolin-4(1H)-one], the IC50 was no more than 100 nM.

`Cc1c[n+]([O-])ccc1N1CN(c2ccc(F)cc2C)c2cc(C(F)F)c(Cl)cc2C1=O` [Example 244, 4-(6-Chloro-7-(difluoromethyl)-1-(4-fluoro-2-methylphenyl)-4-oxo-1,4-dihydroquinazolin-3(2H)-yl)-3-methylpyridine 1-oxide]: the IC50 is no more than 100 nM.

For the molecule `Cc1[nH]c(=O)ccc1N1CN(c2cccc(Cl)c2C)c2ncc(C(F)(F)F)cc2C1=O` [Example 175, 1-(3-chloro-2-methylphenyl)-3-(2-methyl-6-oxo-1,6-dihydropyridin-3-yl)-6-(trifluoromethyl)-2,3-dihydropyrido[2,3-d]pyrimidin-4(1H)-one], the IC50 is 126 to 631 nM.

Regarding `Cc1cc(F)ccc1N1CN(c2ccc(=O)[nH]c2C)C(=O)c2cc(F)c(Cl)nc21` [Example 227, 7-chloro-6-fluoro-1-(4-fluoro-2-methylphenyl)-3-(2-methyl-6-oxo-1,6-dihydropyridin-3-yl)-2,3-dihydropyrido[2,3-d]pyrimidin-4(1H)-one], the IC50 is no more than 100 nM.

For `Cc1[nH]c(=O)ccc1N1CN(c2ccc(F)cc2C(C)(C)C)c2cc(C(F)(F)F)ccc2C1=O` (single isomer, unassigned) [Example 296, 1-(2-(tert-butyl)-4-fluorophenyl)-3-(2-methyl-6-oxo-1,6-dihydropyridin-3-yl)-7-(trifluoromethyl)-2,3-dihydroquinazolin-4(1H)-one], the IC50 is no more than 100 nM.

As to `Cc1cc(F)ccc1N1CN(c2ccc(=O)[nH]c2C)C(=O)c2cc(Cl)c(C(F)F)cc21` [Example 168, 6-chloro-7-(difluoromethyl)-1-(4-fluoro-2-methylphenyl)-3-(2-methyl-6-oxo-1,6-dihydropyridin-3-yl)-2,3-dihydroquinazolin-4(1H)-one], the IC50 was no more than 100 nM.

On to `COc1ncc(N2CN(c3ccc(F)cc3C)c3cc(C(F)(F)F)ccc3C2=O)cn1` [Example 3, 1-(4-fluoro-2-methylphenyl)-3-(2-methoxypyrimidin-5-yl)-7-(trifluoromethyl)-2,3-dihydroquinazolin-4(1H)-one], for which the IC50 was 794 to 7940 nM.

Take `Cc1cc(C#N)ccc1N1CN(c2ccc(=O)[nH]c2C)C(=O)c2ccc(C(F)(F)F)cc21` [Example 148, 3-methyl-4-(3-(2-methyl-6-oxo-1,6-dihydropyridin-3-yl)-4-oxo-7-(trifluoromethyl)-3,4-dihydroquinazolin-1(2H)-yl)benzonitrile]: the IC50 is no more than 100 nM.

Take `Cc1cc(F)ccc1N1CN(c2ccc(=O)[nH]c2C)C(=O)c2cc(O)c(C(F)(F)F)cc21` [Example 100, 1-(4-fluoro-2-methylphenyl)-6-hydroxy-3-(2-methyl-6-oxo-1,6-dihydropyridin-3-yl)-7-(trifluoromethyl)-2,3-dihydroquinazolin-4(1H)-one]: the IC50 is 794 to 7940 nM.

For `Cc1cc(F)ccc1N1CN(C2CCC(=O)NC2)C(=O)c2ccc(C(F)(F)F)cc21` (stereo not drawn) [Example 268], the IC50 is 126 to 631 nM.
